Measurements published in patent US8425885B2, “Substituted 3-(phenoxymethyl) benzyl amines and personal care compositions” (Conopco, Inc., priority 2009, dated 2013).

Tested on: Melanoderm tissue equivalent model MEL-300 (MatTek) containing melanocytes obtained from dark skin individuals
Assay: Melanoderm tissue equivalent melanin content (inhibition of melanogenesis)
Format: cell-based
Settings: Melanocyte, 336 h, total melanin content vs DMSO vehicle, 5 μM in maintenance medium, 14 days
Protocol: Melanoderm tissue equivalent model MEL-300 (MatTek: Ashland, Mass.) containing melanocytes obtained from dark skin individuals were cultured as per supplier instructions. Components were added to the maintenance medium phase (no topical treatments) at a final concentration of 5 μM for 14 days at which time the experiment was terminated and the tissues assessed for melanin content. Medium and treatments were changed three times per week. DMSO was utilized as the vehicle control and all treatments were performed at least in duplicate.
For quantification of total melanin, each Melanoderm was placed into an individual Eppendorf tube (2 mL) into which 250 μL of Solvable™ tissue solubilizer (Packard Bioscience Co., Cat#6NE9100) was added. Each tube was vortexed and incubated at 60° C. for 18 hours. Each sample was then centrifuged (5-minutes at 13,000 RPMs) to remove any particulates. 100 or 200 μL of supernatant were transferred to a 96 well microtiter plate and the absorbance read at 490 nm. Total melanin content was calculated from a standard curve using synthetic melanin (Sigma Cat# M8631). Data was analyzed for significance using the t-test in Microsoft Excel to generate p-values (p-values less than 0.01 represent 99% confidence, p values of 0.05 represent 95% confidence both of which are statistically significant).

Row | Structure (SMILES) | inhibition at 5 µM [%]
1 | CCN(CC)Cc1cccc(COc2ccccc2)c1 [5a, N-(3-(phenoxymethyl)benzyl)-N-ethylethanamine] | 14.4
2 | CCN(CC)Cc1cccc(COc2ccccc2C)c1 [5b, N-(3-((o-tolyloxy)methyl)benzyl)-N-ethylethanamine] | 27.1
3 | CCc1ccccc1OCc1cccc(CN(CC)CC)c1 [5c, N-(3-((2-ethylphenoxy)methyl)benzyl)-N-ethylethanamine] | 30.7
4 | CCN(CC)Cc1cccc(COc2ccccc2OC)c1 [5d, N-(3-((2-methoxyphenoxy)methyl)benzyl)-N-ethylethanamine] | 9.3
5 | COc1ccccc1OCc1cccc(CNC(C)C)c1 [5e, N-(3-((2-methoxyphenoxy)methyl)benzyl)propan-2-amine] | 14.7
6 | CCN(C)Cc1cccc(COc2ccccc2OC)c1 [5f, N-(3-((2-methoxyphenoxy)methyl)benzyl)-N-methylethanamine] | 20.8
7 | CCN(CC)Cc1cccc(COc2ccccc2C(C)C)c1 [5g, N-(3-((2-isopropylphenoxy)methyl)benzyl)-N-ethylethanamine] | 29.9
8 | CCN(CC)Cc1cccc(COc2cccc3ccccc23)c1 [5h, N-(3-((naphthalen-1-yloxy)methyl)benzyl)-N-ethylethanamine] | 33.5
9 | CN(C)Cc1cccc(COc2cccc3ccccc23)c1 [5i, N,N-dimethyl(3-((naphthalen-1-yloxy)methyl)phenyl)methanamine] | 25.3
10 | CC(C)NCc1cccc(COc2cccc3ccccc23)c1 [5j, N-(3-((naphthalen-1-yloxy)methyl)benzyl)propan-2-amine] | 26.5
11 | CCc1ccc(OCc2cccc(CN(C)C)c2)cc1 [5k] | -0.6
12 | CCc1ccccc1OCc1cccc(CN(C)C)c1 [5m, (3-((2-ethylphenoxy)methyl)phenyl)-N,N-dimethylmethanamine] | 31.6
13 | CCc1ccccc1OCc1cccc(CNC)c1 [5q, (3-((2-ethylphenoxy)methyl)phenyl)-N-methylmethanamine] | 42.3
14 | CCNCc1cccc(COc2ccccc2CC)c1 [5r, N-(3-((2-ethylphenoxy)methyl)benzyl)ethanamine] | 33.9
15 | NCc1cccc(COc2cccc3ccccc23)c1 [5s, (3-((naphthalen-1-yloxy)methyl)phenyl)methanamine] | 4
16 | CNCc1cccc(COc2cccc3ccccc23)c1 [5t, N-methyl(3-((naphthalen-1-yloxy)methyl)phenyl)methanamine] | 27.1
17 | CCNCc1cccc(COc2cccc3ccccc23)c1 [5u, N-((3-((naphthalen-1-yloxy)methyl)phenyl)methyl)ethanamine] | 42.5
